Where two headings read alike, the source gives them in different places.
What was measured:
Format in all cases: biochemical
[1] = target: T1, TRKC (Homo sapiens, UniProt Q16288); assay: ProfilerPro Kinase Selectivity, TRKC; conditions: tested at 10 uM, read-out: percent inhibition of the kinase activity
T1 construct: purchased Caliper LifeSciences
Method: (§1) Kinome selectivity profiling was performed using two example compounds according to the manufacturer's instructions using Caliper LifeSciences' ProfilerPro Kinase Selectivity Assay Kits. Compounds prepared in Examples 1 and 7 were tested at 10 uM and data were recorded using the Caliper LabChip® EZ Reader™. Each compounds' percent inhibition of the kinase activity measured in this manner is reported in the following lists.

[2] = target: T2, AMPKA1 (Homo sapiens, UniProt Q13131); assay: ProfilerPro Kinase Selectivity, AMPKA1; conditions: tested at 10 uM, read-out: percent inhibition of the kinase activity
T2 construct: purchased Caliper LifeSciences
Method: as §1

[3] = target: T3, PYK2 (Homo sapiens, UniProt Q14289); assay: ProfilerPro Kinase Selectivity, PYK2; conditions: tested at 10 uM, read-out: percent inhibition of the kinase activity
T3 construct: purchased Caliper LifeSciences
Method: as §1

[4] = target: T4, TEC (Homo sapiens, UniProt P42680); assay: ProfilerPro Kinase Selectivity, TEC; conditions: tested at 10 uM, read-out: percent inhibition of the kinase activity
T4 construct: purchased Caliper LifeSciences
Method: as §1

[5] = target: T5, MER (Homo sapiens, UniProt Q12866); assay: ProfilerPro Kinase Selectivity, MER; conditions: tested at 10 uM, read-out: percent inhibition of the kinase activity
T5 construct: purchased Caliper LifeSciences
Method: as §1

[6] = target: T6, CHK1 (Homo sapiens, UniProt O14757); assay: ProfilerPro Kinase Selectivity, CHK1; conditions: tested at 10 uM, read-out: percent inhibition of the kinase activity
T6 construct: purchased Caliper LifeSciences
Method: as §1

[7] = target: T7, NTRK2 (Homo sapiens, UniProt Q16620); assay: ProfilerPro Kinase Selectivity, NTRK2; conditions: tested at 10 uM, read-out: percent inhibition of the kinase activity
T7 construct: purchased Caliper LifeSciences
Method: as §1

[8] = target: T8, LOK (Homo sapiens, UniProt O94804); assay: ProfilerPro Kinase Selectivity, LOK; conditions: tested at 10 uM, read-out: percent inhibition of the kinase activity
T8 construct: purchased Caliper LifeSciences
Method: as §1

[9] = target: T9, SGK (Homo sapiens, UniProt O00141); assay: ProfilerPro Kinase Selectivity, SGK; conditions: tested at 10 uM, read-out: percent inhibition of the kinase activity
T9 construct: purchased Caliper LifeSciences
Method: as §1

[10] = target: T10, PHKG2 (Homo sapiens, UniProt P15735); assay: ProfilerPro Kinase Selectivity, PHKG2; conditions: tested at 10 uM, read-out: percent inhibition of the kinase activity
T10 construct: purchased Caliper LifeSciences
Method: as §1

[11] = target: LRRK2 (Homo sapiens, UniProt Q5S007); assay: ProfilerPro Kinase Selectivity, LRRK2; conditions: read-out: percent inhibition of the kinase activity
Method: Kinome selectivity profiling was performed using two example compounds according to the manufacturer's instructions using Caliper LifeSciences' ProfilerPro Kinase Selectivity Assay Kits. Compounds prepared in Examples 1 and 7 were tested at 10 uM and data were recorded using the Caliper LabChip® EZ Reader™.

[12] = target: T11, NEK2 (Homo sapiens, UniProt P51955); assay: ProfilerPro Kinase Selectivity, NEK2; conditions: tested at 10 uM, read-out: percent inhibition of the kinase activity
T11 construct: purchased Caliper LifeSciences
Method: as §1

[13] = target: T12, PRKCQ (Homo sapiens, UniProt Q04759); assay: ProfilerPro Kinase Selectivity, PRKCQ; conditions: tested at 10 uM, read-out: percent inhibition of the kinase activity
T12 construct: purchased Caliper LifeSciences
Method: as §1

[14] = target: T13, TXK (Homo sapiens, UniProt P42681); assay: ProfilerPro Kinase Selectivity, TXK; conditions: tested at 10 uM, read-out: percent inhibition of the kinase activity
T13 construct: purchased Caliper LifeSciences
Method: as §1

[15] = target: T14, CAMK4 (Homo sapiens, UniProt Q16566); assay: ProfilerPro Kinase Selectivity, CAMK4; conditions: tested at 10 uM, read-out: percent inhibition of the kinase activity
T14 construct: purchased Caliper LifeSciences
Method: as §1

[16] = target: T15, PAK4 (Homo sapiens, UniProt O96013); assay: ProfilerPro Kinase Selectivity, PAK4; conditions: tested at 10 uM, read-out: percent inhibition of the kinase activity
T15 construct: purchased Caliper LifeSciences
Method: as §1

[17] = target: T16, FGFR3 K650E (Homo sapiens, UniProt P22607, K650E); assay: ProfilerPro Kinase Selectivity, FGFR3 K650E; conditions: tested at 10 uM, read-out: percent inhibition of the kinase activity
T16 construct: purchased Caliper LifeSciences
Method: as §1

[18] = target: T17, BLK (Homo sapiens, UniProt P51451); assay: ProfilerPro Kinase Selectivity, BLK; conditions: tested at 10 uM, read-out: percent inhibition of the kinase activity
T17 construct: purchased Caliper LifeSciences
Method: as §1

[19] = target: T18, EPHA5 (Homo sapiens, UniProt P54756); assay: ProfilerPro Kinase Selectivity, EPHA5; conditions: tested at 10 uM, read-out: percent inhibition of the kinase activity
T18 construct: purchased Caliper LifeSciences
Method: as §1

[20] = target: T19, HCK (Homo sapiens, UniProt P08631); assay: ProfilerPro Kinase Selectivity, HCK; conditions: tested at 10 uM, read-out: percent inhibition of the kinase activity
T19 construct: purchased Caliper LifeSciences
Method: as §1

[21] = target: T20, AURA (Homo sapiens, UniProt O14965); assay: ProfilerPro Kinase Selectivity, AURA; conditions: tested at 10 uM, read-out: percent inhibition of the kinase activity
T20 construct: purchased Caliper LifeSciences
Method: as §1

[22] = target: T21, EGFR (Homo sapiens, UniProt P00533); assay: ProfilerPro Kinase Selectivity, EGFR; conditions: tested at 10 uM, read-out: percent inhibition of the kinase activity
T21 construct: purchased Caliper LifeSciences
Method: as §1

[23] = target: T22, LTK (Homo sapiens, UniProt P29376); assay: ProfilerPro Kinase Selectivity, LTK; conditions: tested at 10 uM, read-out: percent inhibition of the kinase activity
T22 construct: purchased Caliper LifeSciences
Method: as §1

[24] = target: T23, FYN (Homo sapiens, UniProt P06241); assay: ProfilerPro Kinase Selectivity, FYN; conditions: tested at 10 uM, read-out: percent inhibition of the kinase activity
T23 construct: purchased Caliper LifeSciences
Method: as §1

[25] = target: T24, PKG1A (Homo sapiens, UniProt Q13976); assay: ProfilerPro Kinase Selectivity, PKG1A; conditions: tested at 10 uM, read-out: percent inhibition of the kinase activity
T24 construct: purchased Caliper LifeSciences
Method: as §1

[26] = target: T25, DYRK4 (Homo sapiens, UniProt Q9NR20); assay: ProfilerPro Kinase Selectivity, DYRK4; conditions: tested at 10 uM, read-out: percent inhibition of the kinase activity
T25 construct: purchased Caliper LifeSciences
Method: as §1

[27] = target: T26, CLK2 (Homo sapiens, UniProt P49760); assay: ProfilerPro Kinase Selectivity, CLK2; conditions: tested at 10 uM, read-out: percent inhibition of the kinase activity
T26 construct: purchased Caliper LifeSciences
Method: as §1

[28] = target: T27, MINK (Homo sapiens, UniProt Q8N4C8); assay: ProfilerPro Kinase Selectivity, MINK; conditions: tested at 10 uM, read-out: percent inhibition of the kinase activity
T27 construct: purchased Caliper LifeSciences
Method: as §1

[29] = target: T28, EPHB4 (Homo sapiens, UniProt P54760); assay: ProfilerPro Kinase Selectivity, EPHB4; conditions: tested at 10 uM, read-out: percent inhibition of the kinase activity
T28 construct: purchased Caliper LifeSciences
Method: as §1

[30] = target: T29, MSK1 (Homo sapiens, UniProt O75582); assay: ProfilerPro Kinase Selectivity, MSK1; conditions: tested at 10 uM, read-out: percent inhibition of the kinase activity
T29 construct: purchased Caliper LifeSciences
Method: as §1

[31] = target: T30, FGR (Homo sapiens, UniProt P09769); assay: ProfilerPro Kinase Selectivity, FGR; conditions: tested at 10 uM, read-out: percent inhibition of the kinase activity
T30 construct: purchased Caliper LifeSciences
Method: as §1

[32] = target: T31, LYN (Homo sapiens, UniProt P07948); assay: ProfilerPro Kinase Selectivity, LYN; conditions: tested at 10 uM, read-out: percent inhibition of the kinase activity
T31 construct: purchased Caliper LifeSciences
Method: as §1

[33] = target: T32, EPHA8 (Homo sapiens, UniProt P29322); assay: ProfilerPro Kinase Selectivity, EPHA8; conditions: tested at 10 uM, read-out: percent inhibition of the kinase activity
T32 construct: purchased Caliper LifeSciences
Method: as §1

[34] = target: T33, IKKE (Homo sapiens, UniProt Q14164); assay: ProfilerPro Kinase Selectivity, IKKE; conditions: tested at 10 uM, read-out: percent inhibition of the kinase activity
T33 construct: purchased Caliper LifeSciences
Method: as §1

[35] = target: T34, DYRK3 (Homo sapiens, UniProt O43781); assay: ProfilerPro Kinase Selectivity, DYRK3; conditions: tested at 10 uM, read-out: percent inhibition of the kinase activity
T34 construct: purchased Caliper LifeSciences
Method: as §1

[36] = target: T35, AMPKA2/B1/G1 (Homo sapiens, UniProt P54646); assay: ProfilerPro Kinase Selectivity, AMPKA2/B1/G1; conditions: tested at 10 uM, read-out: percent inhibition of the kinase activity
T35 construct: purchased Caliper LifeSciences
Method: as §1

[37] = target: T36, CAMK2B (Homo sapiens, UniProt Q13554); assay: ProfilerPro Kinase Selectivity, CAMK2B; conditions: tested at 10 uM, read-out: percent inhibition of the kinase activity
T36 construct: purchased Caliper LifeSciences
Method: as §1

T28 sequence (P54760 16-987, species assumed): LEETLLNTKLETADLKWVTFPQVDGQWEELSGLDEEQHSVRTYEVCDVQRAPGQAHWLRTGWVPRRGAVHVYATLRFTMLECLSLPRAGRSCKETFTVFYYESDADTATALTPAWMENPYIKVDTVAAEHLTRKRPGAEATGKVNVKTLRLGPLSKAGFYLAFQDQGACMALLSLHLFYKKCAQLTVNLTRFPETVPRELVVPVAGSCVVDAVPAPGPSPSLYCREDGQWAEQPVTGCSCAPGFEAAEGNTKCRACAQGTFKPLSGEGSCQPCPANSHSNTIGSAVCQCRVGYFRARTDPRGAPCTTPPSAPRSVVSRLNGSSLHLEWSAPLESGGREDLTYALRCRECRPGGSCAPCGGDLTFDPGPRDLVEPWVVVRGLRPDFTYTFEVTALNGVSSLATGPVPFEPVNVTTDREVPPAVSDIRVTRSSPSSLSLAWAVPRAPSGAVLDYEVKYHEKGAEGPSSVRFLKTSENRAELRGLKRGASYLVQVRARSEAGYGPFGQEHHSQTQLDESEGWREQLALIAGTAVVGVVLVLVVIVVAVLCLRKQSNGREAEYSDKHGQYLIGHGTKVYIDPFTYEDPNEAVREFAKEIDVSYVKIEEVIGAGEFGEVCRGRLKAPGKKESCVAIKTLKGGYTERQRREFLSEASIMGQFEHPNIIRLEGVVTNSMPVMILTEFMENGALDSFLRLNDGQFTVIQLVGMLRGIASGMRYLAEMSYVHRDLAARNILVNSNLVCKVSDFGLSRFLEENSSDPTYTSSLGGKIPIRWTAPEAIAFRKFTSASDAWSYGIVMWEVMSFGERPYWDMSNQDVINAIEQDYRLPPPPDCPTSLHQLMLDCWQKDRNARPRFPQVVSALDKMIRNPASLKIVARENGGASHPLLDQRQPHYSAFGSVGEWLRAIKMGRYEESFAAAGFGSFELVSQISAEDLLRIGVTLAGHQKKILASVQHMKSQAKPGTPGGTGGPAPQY
T3 sequence (Q14289 whole entry, species assumed): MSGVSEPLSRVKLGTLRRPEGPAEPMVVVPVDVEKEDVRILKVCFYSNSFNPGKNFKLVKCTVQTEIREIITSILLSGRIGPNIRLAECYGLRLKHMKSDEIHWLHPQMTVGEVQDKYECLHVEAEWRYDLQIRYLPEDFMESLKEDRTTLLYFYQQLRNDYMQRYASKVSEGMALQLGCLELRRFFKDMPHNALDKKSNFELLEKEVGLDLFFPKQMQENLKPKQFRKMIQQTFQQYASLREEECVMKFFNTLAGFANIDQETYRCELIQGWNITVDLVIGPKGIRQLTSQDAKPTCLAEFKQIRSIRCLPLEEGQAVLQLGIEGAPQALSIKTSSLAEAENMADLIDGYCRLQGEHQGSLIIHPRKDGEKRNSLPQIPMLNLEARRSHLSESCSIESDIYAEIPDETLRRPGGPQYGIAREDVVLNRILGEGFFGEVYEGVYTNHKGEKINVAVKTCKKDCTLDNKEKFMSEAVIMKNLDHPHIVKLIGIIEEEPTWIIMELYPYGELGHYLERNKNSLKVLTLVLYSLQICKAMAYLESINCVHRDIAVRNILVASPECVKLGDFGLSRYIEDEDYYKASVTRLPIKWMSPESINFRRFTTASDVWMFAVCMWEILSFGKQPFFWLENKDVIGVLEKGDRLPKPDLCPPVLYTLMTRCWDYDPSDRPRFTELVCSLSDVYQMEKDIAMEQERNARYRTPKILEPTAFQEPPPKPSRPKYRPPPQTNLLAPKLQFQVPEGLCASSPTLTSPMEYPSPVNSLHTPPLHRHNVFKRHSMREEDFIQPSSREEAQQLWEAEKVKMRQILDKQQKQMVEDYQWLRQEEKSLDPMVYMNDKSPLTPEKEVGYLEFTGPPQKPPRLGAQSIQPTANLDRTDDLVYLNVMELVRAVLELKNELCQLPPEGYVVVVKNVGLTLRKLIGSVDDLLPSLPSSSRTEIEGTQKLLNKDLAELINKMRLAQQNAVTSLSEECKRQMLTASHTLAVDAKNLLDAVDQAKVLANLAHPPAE
T10 sequence (P15735 whole entry, species assumed): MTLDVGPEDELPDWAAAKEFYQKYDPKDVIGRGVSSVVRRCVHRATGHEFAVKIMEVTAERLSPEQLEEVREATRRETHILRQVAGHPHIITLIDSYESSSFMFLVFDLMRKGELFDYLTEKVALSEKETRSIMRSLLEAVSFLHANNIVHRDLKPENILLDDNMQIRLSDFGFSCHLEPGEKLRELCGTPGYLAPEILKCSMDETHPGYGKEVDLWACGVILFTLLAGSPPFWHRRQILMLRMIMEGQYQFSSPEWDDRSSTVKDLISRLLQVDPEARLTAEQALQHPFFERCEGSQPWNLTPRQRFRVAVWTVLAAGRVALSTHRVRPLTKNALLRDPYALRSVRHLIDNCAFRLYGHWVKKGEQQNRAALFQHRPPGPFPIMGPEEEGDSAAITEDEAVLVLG
T23 sequence (P06241 whole entry, species assumed): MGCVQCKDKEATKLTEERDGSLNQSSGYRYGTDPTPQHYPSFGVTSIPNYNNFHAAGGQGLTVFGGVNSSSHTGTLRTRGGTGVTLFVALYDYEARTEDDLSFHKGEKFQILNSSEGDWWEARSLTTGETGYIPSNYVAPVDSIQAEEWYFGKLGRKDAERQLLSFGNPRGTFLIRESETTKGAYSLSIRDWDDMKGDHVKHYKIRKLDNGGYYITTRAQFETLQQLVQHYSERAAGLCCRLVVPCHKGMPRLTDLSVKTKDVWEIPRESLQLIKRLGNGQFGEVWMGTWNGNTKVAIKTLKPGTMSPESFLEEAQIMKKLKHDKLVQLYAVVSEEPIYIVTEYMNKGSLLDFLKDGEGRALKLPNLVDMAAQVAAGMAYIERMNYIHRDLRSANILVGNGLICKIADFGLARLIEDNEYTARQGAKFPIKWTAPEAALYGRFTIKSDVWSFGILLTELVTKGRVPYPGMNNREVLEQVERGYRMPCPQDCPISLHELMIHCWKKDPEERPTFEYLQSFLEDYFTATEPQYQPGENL
T4 sequence (P42680 whole entry): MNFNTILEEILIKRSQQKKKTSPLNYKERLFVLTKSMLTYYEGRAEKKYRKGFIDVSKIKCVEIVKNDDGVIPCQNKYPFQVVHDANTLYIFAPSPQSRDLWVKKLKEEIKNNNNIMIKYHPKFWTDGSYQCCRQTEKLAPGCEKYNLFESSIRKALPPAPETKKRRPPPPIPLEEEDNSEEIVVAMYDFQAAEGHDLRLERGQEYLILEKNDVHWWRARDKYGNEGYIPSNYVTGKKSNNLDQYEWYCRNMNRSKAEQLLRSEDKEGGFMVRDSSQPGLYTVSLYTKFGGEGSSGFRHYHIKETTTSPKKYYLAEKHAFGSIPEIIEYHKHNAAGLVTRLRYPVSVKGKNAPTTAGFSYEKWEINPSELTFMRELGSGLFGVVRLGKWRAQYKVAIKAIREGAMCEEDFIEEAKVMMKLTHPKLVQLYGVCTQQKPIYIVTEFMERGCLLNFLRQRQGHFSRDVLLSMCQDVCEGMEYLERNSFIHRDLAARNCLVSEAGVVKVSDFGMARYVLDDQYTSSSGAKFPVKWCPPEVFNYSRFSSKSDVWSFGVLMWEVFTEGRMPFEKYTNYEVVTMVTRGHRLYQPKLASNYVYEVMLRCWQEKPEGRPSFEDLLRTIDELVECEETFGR
T27 sequence (Q8N4C8 whole entry): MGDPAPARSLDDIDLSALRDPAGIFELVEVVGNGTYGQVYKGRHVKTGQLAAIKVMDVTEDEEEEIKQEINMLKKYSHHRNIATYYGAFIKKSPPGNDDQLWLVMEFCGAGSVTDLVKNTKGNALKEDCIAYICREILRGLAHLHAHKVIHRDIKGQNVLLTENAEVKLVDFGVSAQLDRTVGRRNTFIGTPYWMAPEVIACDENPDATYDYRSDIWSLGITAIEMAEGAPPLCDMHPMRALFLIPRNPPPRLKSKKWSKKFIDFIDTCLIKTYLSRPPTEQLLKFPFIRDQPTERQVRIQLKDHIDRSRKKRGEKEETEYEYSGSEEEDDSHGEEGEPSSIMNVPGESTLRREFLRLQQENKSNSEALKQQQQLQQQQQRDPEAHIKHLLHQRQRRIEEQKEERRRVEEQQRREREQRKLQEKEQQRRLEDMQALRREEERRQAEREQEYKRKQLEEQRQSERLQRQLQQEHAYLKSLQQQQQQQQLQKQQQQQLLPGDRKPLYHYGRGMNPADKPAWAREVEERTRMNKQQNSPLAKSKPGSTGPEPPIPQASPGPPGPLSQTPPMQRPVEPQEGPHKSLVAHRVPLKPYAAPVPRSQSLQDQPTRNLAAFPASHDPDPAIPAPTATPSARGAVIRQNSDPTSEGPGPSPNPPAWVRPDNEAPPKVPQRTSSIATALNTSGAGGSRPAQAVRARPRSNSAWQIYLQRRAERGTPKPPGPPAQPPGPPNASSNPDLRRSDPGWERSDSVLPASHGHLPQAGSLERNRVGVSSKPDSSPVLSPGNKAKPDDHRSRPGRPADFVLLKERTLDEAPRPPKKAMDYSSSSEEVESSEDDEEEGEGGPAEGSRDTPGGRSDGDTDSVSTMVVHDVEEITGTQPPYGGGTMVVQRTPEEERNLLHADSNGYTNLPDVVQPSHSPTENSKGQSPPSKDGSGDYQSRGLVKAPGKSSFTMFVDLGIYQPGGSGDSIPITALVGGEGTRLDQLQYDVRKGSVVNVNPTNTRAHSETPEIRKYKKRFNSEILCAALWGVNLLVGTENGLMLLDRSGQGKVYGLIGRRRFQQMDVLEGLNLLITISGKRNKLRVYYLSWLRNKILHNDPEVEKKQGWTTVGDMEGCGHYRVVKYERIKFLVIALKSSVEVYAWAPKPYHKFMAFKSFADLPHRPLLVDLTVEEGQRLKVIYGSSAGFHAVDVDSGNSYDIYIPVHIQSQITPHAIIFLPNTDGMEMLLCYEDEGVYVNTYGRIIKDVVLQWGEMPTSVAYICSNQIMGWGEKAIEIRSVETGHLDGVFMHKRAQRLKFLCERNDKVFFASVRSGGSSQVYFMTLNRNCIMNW

Row | SMILES | inhibition at 10 µM [1] | inhibition at 10 µM [2] | inhibition at 10 µM [3] | inhibition at 10 µM [4] | inhibition at 10 µM [5] | inhibition at 10 µM [6] | inhibition at 10 µM [7] | inhibition at 10 µM [8] | inhibition at 10 µM [9] | inhibition at 10 µM [10] | inhibition at 10 µM [12] | inhibition at 10 µM [13] | inhibition at 10 µM [14] | inhibition at 10 µM [15] | inhibition at 10 µM [16] | inhibition at 10 µM [17] | inhibition at 10 µM [18] | inhibition at 10 µM [19] | inhibition at 10 µM [20] | inhibition at 10 µM [21] | also measured
1 | CSc1sc(-c2cc[nH]n2)c2c1C(=O)CCC2 [Example 1, 3-(Methylsulfanyl)-1-(1H-pyrazol-3-yl)-6,7-dihydro-2-benzothiophen-4(5H)-one] | 10.3% | 16.4% | 4.2% | 0.6% | 23.8% | 0% | 16.9% | 7.5% | -5.1% | -5.5% | -0.8% | -0.4% | 22.7% | 20.1% | 6.1% | 3.7% | 6.6% | -3.1% | 12.5% | 44% | inhibition at 10 µM [11]: 93.9%; inhibition at 10 µM [22]: -3.1%; inhibition at 10 µM [23]: 16%; inhibition at 10 µM [24]: 1.2%; inhibition at 10 µM [25]: -5.9%; inhibition at 10 µM [26]: -1.1%; inhibition at 10 µM [27]: 31.3%; inhibition at 10 µM [28]: 24.8%; inhibition at 10 µM [29]: 0.6%; inhibition at 10 µM [30]: 5.1%; inhibition at 10 µM [31]: -7.2%; inhibition at 10 µM [32]: 10.2%; inhibition at 10 µM [33]: -0.2%; inhibition at 10 µM [34]: -1.5%; inhibition at 10 µM [35]: 11.7%; inhibition at 10 µM [36]: -2.7%; inhibition at 10 µM [37]: 6.3%
2 | CC1(C)CC(=O)c2c(SC3CCCC3)sc(-c3cc[nH]n3)c2C1 [Example 7, 3-(Cyclopentylsulfanyl)-6,6-dimethyl-1-(1H-pyrazol-3-yl)-6,7-dihydro-2-benzothiophen-4(5H)-one] | 0.5% | -0.5% | -0.6% | -3.2% | 8% | 8% | 7% | -32.6% | -1.3% | -2% | 0.9% | -4.7% | 8.4% | -1.5% | -8.9% | -4.2% | 3.2% | 1.5% | -1.1% | 11% | inhibition at 10 µM ([11]; LRRK2, tested at 10 uM): 83.1%; inhibition at 10 µM [22]: 2.2%; inhibition at 10 µM [23]: 19.5%; inhibition at 10 µM [24]: 2.5%; inhibition at 10 µM [25]: 1.9%; inhibition at 10 µM [26]: 0.4%; inhibition at 10 µM [27]: 1.3%; inhibition at 10 µM [28]: -1.5%; inhibition at 10 µM [29]: 0.1%; inhibition at 10 µM [30]: -2.8%; inhibition at 10 µM [31]: -1.6%; inhibition at 10 µM [32]: 4%; inhibition at 10 µM [33]: -3.8%; inhibition at 10 µM [34]: 1.3%; inhibition at 10 µM [35]: -8.5%; inhibition at 10 µM [36]: 4.5%; inhibition at 10 µM [37]: 6%

— US20130338106A1, “COMPOUNDS INHIBITING LEUCINE-RICH REPEAT KINASE ENZYME ACTIVITY” (priority 2011, published 2013)
